# Measured values reported in ChEMBL document CHEMBL5724914, “Linking interpersonal differences in gut microbiota composition and drug biotransformation activity” (2024).
# Columns and labels:
# [1] = The drug is tested on Z-030 corresponding to mouse gut metagenome with ENA study accession number: PRJEB37062 and ENA sample accession number: ERS12561829 for biotransformation under anaerobic condition. The drug concentrations were measured over 9 timepoints collected between 0 and 24 hours of incubation by liquid-chromatography-coupled mass spectrometry (LC–MS); conditions: 2 µM
# [2] = The drug is tested on Z-025 corresponding to rabbit gut metagenome with ENA study accession number: PRJEB37062 and ENA sample accession number: ERS12561824 for biotransformation under anaerobic condition. The drug concentrations were measured over 9 timepoints collected between 0 and 24 hours of incubation by liquid-chromatography-coupled mass spectrometry (LC–MS); conditions: 2 µM
# [3] = The drug is tested on Z-016 corresponding to mouse gut metagenome with ENA study accession number: PRJEB37062 and ENA sample accession number: ERS12561815 for biotransformation under anaerobic condition. The drug concentrations were measured over 9 timepoints collected between 0 and 24 hours of incubation by liquid-chromatography-coupled mass spectrometry (LC–MS); conditions: 2 µM
# [4] = The drug is tested on Z-008 corresponding to metagenome with ENA study accession number: PRJEB37062 and ENA sample accession number: ERS12561808 for biotransformation under anaerobic condition. The drug concentrations were measured over 9 timepoints collected between 0 and 24 hours of incubation by liquid-chromatography-coupled mass spectrometry (LC–MS); conditions: 2 µM
# [5] = The drug is tested on Z-005 corresponding to metagenome with ENA study accession number: PRJEB37062 and ENA sample accession number: ERS12561805 for biotransformation under anaerobic condition. The drug concentrations were measured over 9 timepoints collected between 0 and 24 hours of incubation by liquid-chromatography-coupled mass spectrometry (LC–MS); conditions: 2 µM
# [6] = The drug is tested on Z-004 corresponding to metagenome with ENA study accession number: PRJEB37062 and ENA sample accession number: ERS12561804 for biotransformation under anaerobic condition. The drug concentrations were measured over 9 timepoints collected between 0 and 24 hours of incubation by liquid-chromatography-coupled mass spectrometry (LC–MS); conditions: 2 µM
# [7] = The drug is tested on WLS-310 corresponding to human gut metagenome with ENA study accession number: PRJEB37062 and ENA sample accession number: ERS12561785 for biotransformation under anaerobic condition. The drug concentrations were measured over 9 timepoints collected between 0 and 24 hours of incubation by liquid-chromatography-coupled mass spectrometry (LC–MS); conditions: 2 µM
# [8] = The drug is tested on WLS-098 corresponding to human gut metagenome with ENA study accession number: PRJEB37062 and ENA sample accession number: ERS12561754 for biotransformation under anaerobic condition. The drug concentrations were measured over 9 timepoints collected between 0 and 24 hours of incubation by liquid-chromatography-coupled mass spectrometry (LC–MS); conditions: 2 µM
# [9] = The drug is tested on WLS-090 corresponding to human gut metagenome with ENA study accession number: PRJEB37062 and ENA sample accession number: ERS12561753 for biotransformation under anaerobic condition. The drug concentrations were measured over 9 timepoints collected between 0 and 24 hours of incubation by liquid-chromatography-coupled mass spectrometry (LC–MS); conditions: 2 µM
# [10] = The drug is tested on WLS-086 corresponding to human gut metagenome with ENA study accession number: PRJEB37062 and ENA sample accession number: ERS12561752 for biotransformation under anaerobic condition. The drug concentrations were measured over 9 timepoints collected between 0 and 24 hours of incubation by liquid-chromatography-coupled mass spectrometry (LC–MS); conditions: 2 µM
# [11] = The drug is tested on WLS-039 corresponding to human gut metagenome with ENA study accession number: PRJEB37062 and ENA sample accession number: ERS12561746 for biotransformation under anaerobic condition. The drug concentrations were measured over 9 timepoints collected between 0 and 24 hours of incubation by liquid-chromatography-coupled mass spectrometry (LC–MS); conditions: 2 µM
# [12] = The drug is tested on WLS-006 corresponding to human gut metagenome with ENA study accession number: PRJEB37062 and ENA sample accession number: ERS12561741 for biotransformation under anaerobic condition. The drug concentrations were measured over 9 timepoints collected between 0 and 24 hours of incubation by liquid-chromatography-coupled mass spectrometry (LC–MS); conditions: 2 µM
# [13] = human gut metagenome, 24 h, 2 µM
# [14] = human gut metagenome, 24 h, 2 µM; remark: listed apart in the source
# [15] = human gut metagenome, 24 h, 2 µM; remark: listed apart in the source
# [16] = human gut metagenome, 24 h, 2 µM; remark: listed apart in the source
# [17] = human gut metagenome, 24 h, 2 µM; remark: listed apart in the source
# [18] = human gut metagenome, 24 h, 2 µM; remark: listed apart in the source
# [19] = human gut metagenome, 24 h, 2 µM; remark: listed apart in the source
# [20] = human gut metagenome, 24 h, 2 µM; remark: listed apart in the source
# Also: call rule not given here.
SMILES,Bacterial Biotransformation [1],Bacterial Biotransformation [2],Bacterial Biotransformation [3],Bacterial Biotransformation [4],Bacterial Biotransformation [5],Bacterial Biotransformation [6],Bacterial Biotransformation [7],Bacterial Biotransformation [8],Bacterial Biotransformation [9],Bacterial Biotransformation [10],Bacterial Biotransformation [11],Bacterial Biotransformation [12],Bacterial Biotransformation [13],Bacterial Biotransformation [14],Bacterial Biotransformation [15],Bacterial Biotransformation [16],Bacterial Biotransformation [17],Bacterial Biotransformation [18],Bacterial Biotransformation [19],Bacterial Biotransformation [20]
CCN(CC)CCOC(=O)C(Cc1cccc2ccccc12)CC1CCCO1.O=C(O)C(=O)O (stereo not given) [NAFRONYL OXALATE],Compound NOT metabolized,Compound NOT metabolized,Compound metabolized,Compound NOT metabolized,Compound metabolized,Compound metabolized,Compound metabolized,Compound metabolized,Compound metabolized,Compound metabolized,Compound metabolized,Compound metabolized,Compound metabolized,Compound metabolized,Compound metabolized,Compound metabolized,Compound metabolized,Compound NOT metabolized,Compound metabolized,Compound metabolized
CCc1nn(CCCN2CCN(c3cccc(Cl)c3)CC2)c(=O)n1CCOc1ccccc1 [NEFAZODONE],Compound NOT metabolized,Compound NOT metabolized,Compound NOT metabolized,Compound NOT metabolized,Compound NOT metabolized,Compound NOT metabolized,Compound metabolized,Compound metabolized,Compound metabolized,Compound metabolized,Compound metabolized,Compound metabolized,Compound NOT metabolized,Compound NOT metabolized,Compound NOT metabolized,Compound metabolized,Compound NOT metabolized,Compound metabolized,Compound metabolized,Compound metabolized
CN1CCOC(c2ccccc2)c2ccccc2C1 (stereo not given) [NEFOPAM],Compound NOT metabolized,Compound NOT metabolized,Compound NOT metabolized,Compound NOT metabolized,Compound NOT metabolized,Compound NOT metabolized,Compound NOT metabolized,Compound metabolized,Compound metabolized,Compound metabolized,Compound NOT metabolized,Compound metabolized,Compound NOT metabolized,Compound NOT metabolized,Compound NOT metabolized,Compound metabolized,Compound metabolized,Compound NOT metabolized,Compound NOT metabolized,Compound metabolized
Cc1ccnc2c1NC(=O)c1cccnc1N2C1CC1 [NEVIRAPINE],Compound NOT metabolized,Compound NOT metabolized,Compound NOT metabolized,Compound NOT metabolized,Compound NOT metabolized,Compound NOT metabolized,Compound metabolized,Compound metabolized,Compound metabolized,Compound metabolized,Compound NOT metabolized,Compound NOT metabolized,Compound NOT metabolized,Compound NOT metabolized,Compound NOT metabolized,Compound metabolized,Compound NOT metabolized,Compound NOT metabolized,Compound NOT metabolized,Compound metabolized
CO[C@]12C[C@@H](COC(=O)c3cncc(Br)c3)CN(C)[C@@H]1Cc1cn(C)c3cccc2c13 [NICERGOLINE],Compound NOT metabolized,Compound metabolized,Compound metabolized,Compound NOT metabolized,Compound metabolized,Compound metabolized,Compound NOT metabolized,Compound metabolized,Compound metabolized,Compound metabolized,Compound metabolized,Compound metabolized,Compound NOT metabolized,Compound metabolized,Compound NOT metabolized,Compound NOT metabolized,Compound NOT metabolized,Compound NOT metabolized,Compound NOT metabolized,Compound NOT metabolized
